The assay deals with P388 leukemia ip, CD2F1 mice, survival T/C. Nature of the assay: NCI In Vivo Anticancer Drug Screen. Data for tumor model P388 Leukemia (intraperitoneal) in CD2F1 (CDF1) mice. As to conditions: endpoint: median survival time, higher = longer survival. The method in brief: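 Mice carrying the transplanted tumor received test compound or vehicle. Survival was recorded in each group, and the value is the treated-group measurement divided by that of the vehicle-treated control group.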

Where [1] appears, read: dose: 12.5 mg/kg/injection, schedule: Q01DX005 (ip), vehicle: saline with Tween-80.
Where [2] appears, read: dose: 25.0 mg/kg/injection, schedule: Q01DX005 (ip), vehicle: saline with Tween-80.
Setting [3] is: dose: 50.0 mg/kg/injection, schedule: Q01DX005 (ip), vehicle: saline with Tween-80.
The mark [4] stands for this setting: dose: 100.0 mg/kg/injection, schedule: Q01DX001 (ip), vehicle: saline.
Where [5] appears, read: dose: 200.0 mg/kg/injection, schedule: Q01DX001 (ip), vehicle: saline.
Where [6] appears, read: dose: 400.0 mg/kg/injection, schedule: Q01DX001 (ip), vehicle: saline.
Setting [7] is: dose: 60.0 mg/kg/injection, schedule: Q01DX005 (ip), vehicle: Klucel (hydroxypropylcellulose) (HPC).
Setting [8] is: dose: 120.0 mg/kg/injection, schedule: Q01DX005 (ip), vehicle: Klucel (hydroxypropylcellulose) (HPC).
[9] abbreviates: dose: 240.0 mg/kg/injection, schedule: Q01DX005 (ip), vehicle: Klucel (hydroxypropylcellulose) (HPC).
[10] abbreviates: dose: 60.0 mg/kg/injection, schedule: Q01DX005 (ip), vehicle: saline with Tween-80.
The mark [11] stands for this setting: dose: 120.0 mg/kg/injection, schedule: Q01DX005 (ip), vehicle: saline with Tween-80.
Setting [12] is: dose: 240.0 mg/kg/injection, schedule: Q01DX005 (ip), vehicle: saline with Tween-80.
Where [13] appears, read: dose: 50.0 mg/kg/injection, schedule: Q01DX009 (ip), vehicle: saline.
[14] abbreviates: dose: 100.0 mg/kg/injection, schedule: Q01DX009 (ip), vehicle: saline.

Several values for one entry are separate records, joined by “and”; a condition that tells them apart may be missing. Identical values can stand only once. Toxic doses and inconclusive results are not listed.

Regarding `CCCNC(=O)OCCN(CCOC(=O)NCCC)CCc1cccc(OC)c1OC`, the T/C (dose: 60.0 mg/kg/injection, schedule: Q01DX005 (ip), vehicle: saline) is 101 % of control; the T/C (dose: 120.0 mg/kg/injection, schedule: Q01DX005 (ip), vehicle: saline) was 105 % of control; the T/C (dose: 240.0 mg/kg/injection, schedule: Q01DX005 (ip), vehicle: saline) was 100 % of control.
`Nc1[nH]c(=O)ncc1-c1ccc([N+](=O)[O-])cc1`: the T/C by setting is: under setting [1], 95 % of control; under setting [2], 97 % of control; under setting [3], 101 % of control and 105 % of control.
As to `CCC1(CC)C(=O)N(C(C)=O)C2(C)C(=O)NC(=O)N2C1=O` (configuration not stated), the T/C is, setting by setting: under setting [4], 100 % of control; under setting [5], 100 % of control; under setting [6], 101 % of control.
Regarding `CCCC1SCC(=O)N1c1nncs1` (configuration not stated), the T/C runs as follows: (dose: 30.0 mg/kg/injection, schedule: Q01DX005 (ip), vehicle: Klucel (hydroxypropylcellulose) (HPC)) 94 % of control; under setting [7], 104 % of control and 111 % of control; (dose: 100.0 mg/kg/injection, schedule: Q01DX001 (ip), vehicle: Klucel (hydroxypropylcellulose) (HPC)) 96 % of control; under setting [8], 120 % of control; (dose: 200.0 mg/kg/injection, schedule: Q01DX001 (ip), vehicle: Klucel (hydroxypropylcellulose) (HPC)) 103 % of control; under setting [9], 166 % of control.
`C/C(=N\OCC(O)CNCCNC(=O)C(C)C)c1ccc(N(C)C)cc1` (configuration not stated): the T/C is 98 % of control under setting [7] and 99 % of control under setting [8].
`Cc1no[n+]([O-])c1C(N)=O`: the T/C by setting is: under setting [10], 101 % of control; under setting [11], 100 % of control; under setting [12], 102 % of control.
`c1ccc(Sc2ncccn2)nc1`: the T/C is, setting by setting: under setting [13], 108 % of control; under setting [14], 115 % of control.
In the case of `O[C@H]1c2cccn2-c2ccccc2S[C@H]1c1ccccc1`, the T/C under setting [7] was 91 % of control, the T/C under setting [8] was 94 % of control and the T/C under setting [9] was 102 % of control.
For the compound `C/C=c1/[nH]c(=O)/c(=C\C=C\c2ccccc2)[nH]c1=O`, the T/C runs as follows: (dose: 25.0 mg/kg/injection, schedule: Q01DX009 (ip), vehicle: Klucel (hydroxypropylcellulose) (HPC)) 106 % of control and 91 % of control; (dose: 50.0 mg/kg/injection, schedule: Q01DX009 (ip), vehicle: Klucel (hydroxypropylcellulose) (HPC)) 104 % of control and 91 % of control; (dose: 100.0 mg/kg/injection, schedule: Q01DX009 (ip), vehicle: Klucel (hydroxypropylcellulose) (HPC)) 88 % of control and 91 % of control and 95 % of control; (dose: 200.0 mg/kg/injection, schedule: Q01DX009 (ip), vehicle: Klucel (hydroxypropylcellulose) (HPC)) 97 % of control.
`CC(=O)Nc1ccc(/C=C/c2csnn2)cc1`: the T/C runs as follows: under setting [10], 92 % of control; under setting [11], 87 % of control; under setting [12], 92 % of control.
On to `N#CC12c3ccccc3C(c3ccccc31)C1C(=O)C=CC(=O)C12` (configuration not stated), for which the T/C is, setting by setting: (dose: 12.5 mg/kg/injection, schedule: Q01DX009 (ip), vehicle: saline) 111 % of control; (dose: 25.0 mg/kg/injection, schedule: Q01DX009 (ip), vehicle: saline) 106 % of control; under setting [13], 92 % of control and 96 % of control.
On to `C[CH2][Ge]([CH2]C)[CH2]C.C[CH2][Ge]([Cl])[CH2]C.C[CH2][Ge][CH2]C`, for which the T/C is, setting by setting: under setting [13], 104 % of control; under setting [14], 103 % of control; (dose: 200.0 mg/kg/injection, schedule: Q01DX009 (ip), vehicle: saline) 103 % of control.
Regarding `COC(=O)c1nc(N)nc(C(=O)OC)c1C(=O)c1ccccc1`, the T/C is 100 % of control under setting [7] and 93 % of control under setting [8].
As to `Nc1nnc(-c2ccccc2S)o1`, the T/C by setting is: under setting [10], 103 % of control; under setting [11], 108 % of control; under setting [12], 110 % of control.
With `[B-][N+]12CC[N+]([B-])(CC1)CC2`, the T/C is, setting by setting: (dose: 0.06 mg/kg/injection, schedule: Q04DX003 (ip), vehicle: other) 100 % of control; (dose: 0.13 mg/kg/injection, schedule: Q04DX003 (ip), vehicle: other) 100 % of control; (dose: 0.25 mg/kg/injection, schedule: Q04DX003 (ip), vehicle: other) 100 % of control; (dose: 15.6 micrograms/kg/injection, schedule: Q01DX009 (ip), vehicle: other) 100 % of control; (dose: 31.3 micrograms/kg/injection, schedule: Q01DX009 (ip), vehicle: other) 100 % of control; (dose: 62.5 micrograms/kg/injection, schedule: Q01DX009 (ip), vehicle: other) 100 % of control. Further, the T/C was 87 % of control (dose: 62.5 micrograms/kg/injection, schedule: Q01DX009 (ip), vehicle: saline) and 104 % of control (dose: 125.0 micrograms/kg/injection, schedule: Q01DX009 (ip), vehicle: saline).
With `Fc1cccc(CSC(=S)Nc2ccccc2)c1`, the T/C reads like this: under setting [4], 106 % of control; under setting [5], 102 % of control; under setting [6], 102 % of control.
As for `O=C1CC(SC(=S)N2CCCCC2)C(=O)N1c1ccccc1` (configuration not stated), the T/C runs as follows: (dose: 100.0 mg/kg/injection, schedule: Q04DX002 (ip), vehicle: saline) 105 % of control and 98 % of control; (dose: 200.0 mg/kg/injection, schedule: Q04DX002 (ip), vehicle: saline) 100 % of control and 109 % of control; (dose: 400.0 mg/kg/injection, schedule: Q04DX002 (ip), vehicle: saline) 100 % of control and 104 % of control.
`O=C1CS/C(=C/Cc2nc3ccccc3s2)N1`: the T/C runs as follows: under setting [10], 108 % of control; under setting [11], 97 % of control; under setting [12], 102 % of control.
For `CC(C)=CC[P+](CP(c1ccccc1)c1ccccc1)(c1ccccc1)c1ccccc1`, the T/C by setting is: (dose: 3.12 mg/kg/injection, schedule: Q01DX005 (ip), vehicle: saline with Tween-80) 107 % of control; (dose: 6.25 mg/kg/injection, schedule: Q01DX005 (ip), vehicle: saline with Tween-80) 105 % of control; under setting [1], 89 % of control.
Regarding `O=C1/C(=C/c2cccs2)CCc2ccccc21`, the T/C was 100 % of control under setting [7], 107 % of control under setting [8] and 98 % of control under setting [9].
For the compound `CC1=CC=CN2CCC(=O)N=C12`, the T/C is 113 % of control (dose: 50.0 mg/kg/injection, schedule: Q01DX005 (ip), vehicle: saline); 101 % of control (dose: 100.0 mg/kg/injection, schedule: Q01DX005 (ip), vehicle: saline); 101 % of control (dose: 200.0 mg/kg/injection, schedule: Q01DX005 (ip), vehicle: saline).
As to `CC(C)c1cc(C(F)(F)F)nc(NNc2nc(C(C)C)cc(C(F)(F)F)n2)n1`, the T/C was 104 % of control (dose: 50.0 mg/kg/injection, schedule: Q01DX009 (ip), vehicle: saline with Tween-80); 104 % of control (dose: 100.0 mg/kg/injection, schedule: Q01DX009 (ip), vehicle: saline with Tween-80); 92 % of control (dose: 200.0 mg/kg/injection, schedule: Q01DX009 (ip), vehicle: saline with Tween-80).
In the case of `COc1cc2c(c3c1c(=O)c1ccccc1n3C)C=CC(C)(C)O2`, the T/C (dose: 7.5 mg/kg/injection, schedule: Q01DX009 (ip), vehicle: saline with Tween-80) was 99 % of control; the T/C under setting [1] is 92 % of control; the T/C (dose: 15.0 mg/kg/injection, schedule: Q01DX009 (ip), vehicle: saline with Tween-80) was 98 % of control; the T/C (dose: 25.0 mg/kg/injection, schedule: Q01DX005 (ip), vehicle: Klucel (hydroxypropylcellulose) (HPC)) was 97 % of control; the T/C under setting [2] was 92 % of control; the T/C (dose: 30.0 mg/kg/injection, schedule: Q01DX009 (ip), vehicle: saline with Tween-80) is 103 % of control. Besides, the T/C (dose: 50.0 mg/kg/injection, schedule: Q01DX005 (ip), vehicle: Klucel (hydroxypropylcellulose) (HPC)) is 112 % of control; the T/C under setting [3] is 112 % of control; the T/C (dose: 100.0 mg/kg/injection, schedule: Q01DX005 (ip), vehicle: Klucel (hydroxypropylcellulose) (HPC)) was 118 % of control; the T/C (dose: 100.0 mg/kg/injection, schedule: Q01DX005 (ip), vehicle: saline with Tween-80) is 113 % of control.

For the origin of these results see PubChem BioAssay AID330 (DTP/NCI, 2004).
